According to patent publication US7157092B1, “Acyl pseudodipeptides, preparation method and pharmaceutical compositions containing same” (Om Pharma, priority 1998, dated 2007):
Where “and” joins values, the source holds several entries; their conditions need not be identical. Equal entries are not always repeated.

System: TT antigen
Experiment: Subcutaneous immunization with TT antigen (tetanos toxoid): specific serum immunoglobulins (ELISA)
Assay type: in vivo, BALB/c mice
Conditions: for Titer of immunoglobulins specifically directed against TT of IgM subclass (number of animals and dilution): dilution giving signal at 490 nm greater than mean ± 3 SD of group A; for Immunoglobulins specifically raised against TT of IgG1 subclass / Immunoglobulins specifically raised against TT of IgG2a subclass: s.c. injections days 0 and 14, adjuvant 50 μg per injection, ± SD; for adjuvant effect on titer of IgG1 and IgG2a antibodies specifically raised against TT: after one or two injections, FIGS. 28, 29
Method: To this end, 40 BALB/c mice (females, 8 weeks-old at the beginning of treatment) are divided into 4 groups as follows:
Antigen: A TT stock solution is prepared at a concentration of 0.2 mg/ml in 0.9% NaCl.
The negative control consists of a 0.9% NaCl solution without antigen.
Antigen-Adjuvant mixture: Adjuvants are allowed to stand for 20 minutes at 37° C. before vortex treatment for 3 minutes. Then the antigen and (0.9%) NaCl are added as specified in the above Table, and the antigen/adjuvant mixture is vortexed briefly before placing it on a rotary stirrer for 15 minutes at room temperature, then the whole mixture is vortexed for 3 minutes.
Immunization regimen: Injections are scheduelled on days 0 and 14. The mixtures stated in the preceeding table are administered by subcutaeous route (75 μl on the side, 150 μl in total per animal). Blood sampling is scheduelled on days 14 and 28 (orbital puncture).
Assay for anti-TT immunoglobulins: The following serum Immunolglobulins which are specifically directed against TT are assayed in duplicate by ELISA: IgG1, IgG2a, and IgM. Microtiter plates (NUNC Immunoplate, Roskilde, DK) are incubated (overnight coating) at 4° C. together with 100 μl TT (0.5 μg) in bicarbonate buffer (pH 9.6). After washing with 0.5% Tween-20 (Merck Hohenbrunn, D), sera are diluted 50-, 200- and 800-fold (diluting solution: phosphate buffered saline (PBS)+1% bovine serum albumin (BSA, Sigma, St. Louis, Mo., USA)+0.02% Tween-20)). 100 μl of each dilute serum sample are added to the wells. Incubation lasts 45 minutes at 37° C.
After a second washing step, IgG1, IgG2a and IgM specifically directed to ovalbumin are incubated for 30 minutes at 37° C. together with 100 μl of anti-IgG1 antibodies-peroxydase conjugate (Serotec, Oxford, UK), IgG2a-peroxydase conjugate (Pharmingen, San Diego, Calif., USA) and IgM-biotin conjugate (Pharmingen, San Diego, Calif., USA), diluted beforehand in PBS/BSA/Tween buffer (250-, 1000-, 500-fold dilutions, respectively). For IgM, after an extra washing step, a 3rd incubation step is required (30 min. at 37° C.) with a 1:100 dilute solution of streptavidin-peroxydase conjugate (Dako, Glostrup, DK).
After the washing step, 100 μl of a phenylene 1,2-diamine solution (OPD, Merck, Darmstadt, GFR) are added to detect peroxydase-coupled anti-IgG1 and anti-IgG2 secondary antibodies (whereas for IgM, the reagent being used is 3′, 3′, 5′,5′-tetramethylbenzidine (TMB, Sigma, St. Louis, Mo., USA). After a 20 minute incubation period at room temperature (40 min. for TMB), the reaction is stopped by adding 100 μl of 2N H2SO4. Absorbance values are read at 490 nm with a Bio-Rad 3550 model plate reader
Results of each reading at 490 nm when measuring IgG1 and IgG2a are given in arbitrary units (A.U.) per ml. This is achieved by comparing each sample with a standard prepared from different dilutions of a sample pool collected from the group B at day 28 (animals injected with TT alone). As this term implies, the sample pool diluted 50-fold is at a concentration of 1000 A.U./ml. Individual results are then corrected for the corresponding dilution factor (50, 200, or 800 fold). Only the mean values of each group and the standard deviation (SD) are herein reported.
Regarding the assay of IgM specific for TT, since the “background noise” of the assay was too high, no clear cut difference could be found between group B (TT alone) and groups C and D (TT with adjuvant) by measuring specific IgM as previously done for IgG1 and IgG2a. Instead, specific IgM titer could be determined, using successive dilutions of each sample (rather than A.U. described before) and the result was reported, for each sample, as the highest dilution which gives an absorbance reading greater than mean absorbance±3 SD for group A (NaCl).

Row | Molecule | Titer of immunoglobulins specifically directed against TT of IgM subclass (number of animals and dilution) (Day 14) | Immunoglobulins specifically raised against TT of IgG1 subclass (Day 14) | Immunoglobulins specifically raised against TT of IgG2a subclass (Day 14) | Titer of immunoglobulins specifically directed against TT of IgM subclass (number of animals and dilution) (Day 28) | Immunoglobulins specifically raised against TT of IgG1 subclass (Day 28) | Immunoglobulins specifically raised against TT of IgG2a subclass (Day 28) | adjuvant effect on titer of IgG1 and IgG2a antibodies specifically raised against TT
1 | TT: TT antigen (tetanos toxoid, Massachussetts Biologic Laboratoires), injected alone | 9 animals < 25 and 1 animal < 50 | 2871 ± 1633 Arbitrary units/ml | 2547 ± 2539 Arbitrary units/ml | 10 animals < 25 | 34367 ± 15018 Arbitrary units/ml | 61387 ± 82269 Arbitrary units/ml | –
2 | CCCCCCCCCCCC(=O)O[C@H](CCCCCCCCCCC)CC(=O)NC(CCOP(=O)(O)O)C(=O)NCCCC(COP(=O)(O)O)NC(=O)C[C@H](O)CCCCCCCCCCC (stereo partly drawn) [OM-294-DP, 3-[(R)-3-dodecanoyloxytetradecanoylamino]-4-oxo-5-aza-9-[(R)-3-hydroxytetradecanoylamino]decan-1,10-diol 1, 10-bis(dihydrogenphosphate)] | – | – | – | – | – | – | often significantly increase the titer of IgG1 and IgG2a antibodies
3 | CCCCCCCCCCCC(=O)O[C@H](CCCCCCCCCCC)CC(=O)NC(CCOP(=O)(O)O)C(=O)NCCCC(CO)NC(=O)C[C@H](O)CCCCCCCCCCC (stereo partly drawn) [OM-294-MP, 3-[(R)-3-dodecanoyloxytetradecanoylamino]-4-oxo-5-aza-9-[(R)-3-hydroxytetradecanoylamino]-decane-1,10-diol 1-dihydrogenphosphate] | – | – | – | – | – | – | often significantly increase the titer of IgG1 and IgG2a antibodies
